Measurements taken from ChEMBL document CHEMBL5370549, “Optimization and evaluation of pyridinyl vinyl sulfones as Nrf2 activator for the antioxidant and anti-inflammatory effects” (Eur J Med Chem, 2023).
Active and inactive are the calls of the source. No cut-off for these calls is given here.

Key:
[1] = biological target: T1, Nuclear factor erythroid 2-related factor 2 (Homo sapiens, UniProt Q16236); assay: Activation of Nrf2 in human U2OS cells co-expressing Keap1 assessed as induction of Nrf2 nuclear translocation incubated for 6 hrs by PathHunter chemiluminescence based analysis; type: cell-based
T1 sequence (Q16236 whole entry): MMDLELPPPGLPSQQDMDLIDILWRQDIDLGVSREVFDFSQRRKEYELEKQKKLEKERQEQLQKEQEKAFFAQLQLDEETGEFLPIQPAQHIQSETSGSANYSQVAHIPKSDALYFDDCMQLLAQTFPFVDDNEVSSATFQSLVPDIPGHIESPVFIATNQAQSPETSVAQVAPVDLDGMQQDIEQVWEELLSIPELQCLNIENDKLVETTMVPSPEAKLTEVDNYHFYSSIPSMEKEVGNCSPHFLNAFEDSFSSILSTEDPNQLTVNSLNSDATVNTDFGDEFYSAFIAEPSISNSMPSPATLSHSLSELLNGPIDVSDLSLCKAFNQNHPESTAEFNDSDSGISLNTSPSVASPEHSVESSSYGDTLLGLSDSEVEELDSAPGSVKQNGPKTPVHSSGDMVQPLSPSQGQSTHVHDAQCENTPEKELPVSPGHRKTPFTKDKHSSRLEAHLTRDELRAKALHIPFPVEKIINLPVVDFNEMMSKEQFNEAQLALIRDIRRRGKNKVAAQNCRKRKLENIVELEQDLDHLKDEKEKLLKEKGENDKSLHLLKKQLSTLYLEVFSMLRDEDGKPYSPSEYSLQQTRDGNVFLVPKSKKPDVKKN

CYP1A2 = biological target: T2, CYP1A2 (Homo sapiens, UniProt P05177); assay: Inhibition of CYP1A2 (unknown origin) assessed as enzyme activity at 10 uM relative to control; type: ADME; parameters: scale not given: the % may be the effect or the level left; conditions: read-out: Activity
T2 sequence (P05177 whole entry): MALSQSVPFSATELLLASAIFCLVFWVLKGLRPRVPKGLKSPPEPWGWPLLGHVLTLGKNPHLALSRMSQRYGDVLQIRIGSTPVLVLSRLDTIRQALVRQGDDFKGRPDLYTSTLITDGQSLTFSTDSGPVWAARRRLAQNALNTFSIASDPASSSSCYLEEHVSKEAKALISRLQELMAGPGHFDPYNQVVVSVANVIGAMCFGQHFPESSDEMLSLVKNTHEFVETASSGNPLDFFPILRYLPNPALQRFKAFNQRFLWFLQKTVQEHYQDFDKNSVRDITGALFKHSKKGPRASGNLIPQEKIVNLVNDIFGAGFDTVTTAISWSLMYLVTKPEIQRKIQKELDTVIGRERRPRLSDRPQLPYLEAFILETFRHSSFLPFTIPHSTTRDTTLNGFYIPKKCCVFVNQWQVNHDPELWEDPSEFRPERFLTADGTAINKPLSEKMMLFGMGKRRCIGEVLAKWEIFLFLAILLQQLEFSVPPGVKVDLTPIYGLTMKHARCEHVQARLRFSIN

CYP3A4 = CYP3A4 (Homo sapiens, UniProt P08684); assay: Inhibition of CYP3A4 (unknown origin) assessed as enzyme activity at 10 uM relative to control; type: ADME; parameters: scale not given: the % may be the effect or the level left; conditions: read-out: Activity
CYP2C9 = CYP2C9 (Homo sapiens, UniProt P11712); assay: Inhibition of CYP2C9 (unknown origin) assessed as enzyme activity at 10 uM relative to control; type: ADME; parameters: scale not given: the % may be the effect or the level left; conditions: read-out: Activity
[2] = Metabolic stability of the compound in human liver microsomes assessed as parent compound remaining measured after 30 mins; type: ADME, Microsome; conditions: read-out: Stability
[3] = Metabolic stability of the compound in rat plasma assessed as parent compound remaining measured after 30 mins; type: ADME, cell-free; conditions: read-out: Stability
[4] = biological target: T3, Nuclear factor erythroid 2-related factor 2 (Mus musculus) (UniProt Q60795); assay: Activation of Nrf2 in mouse BV-2 cells assessed as increase in Nrf2 nuclear translocation measured after 3 hrs by immunoblot analysis; type: subcellular; conditions: Nucleus, filed as activator, dose 0.01-3 µM
T3 sequence (whole entry): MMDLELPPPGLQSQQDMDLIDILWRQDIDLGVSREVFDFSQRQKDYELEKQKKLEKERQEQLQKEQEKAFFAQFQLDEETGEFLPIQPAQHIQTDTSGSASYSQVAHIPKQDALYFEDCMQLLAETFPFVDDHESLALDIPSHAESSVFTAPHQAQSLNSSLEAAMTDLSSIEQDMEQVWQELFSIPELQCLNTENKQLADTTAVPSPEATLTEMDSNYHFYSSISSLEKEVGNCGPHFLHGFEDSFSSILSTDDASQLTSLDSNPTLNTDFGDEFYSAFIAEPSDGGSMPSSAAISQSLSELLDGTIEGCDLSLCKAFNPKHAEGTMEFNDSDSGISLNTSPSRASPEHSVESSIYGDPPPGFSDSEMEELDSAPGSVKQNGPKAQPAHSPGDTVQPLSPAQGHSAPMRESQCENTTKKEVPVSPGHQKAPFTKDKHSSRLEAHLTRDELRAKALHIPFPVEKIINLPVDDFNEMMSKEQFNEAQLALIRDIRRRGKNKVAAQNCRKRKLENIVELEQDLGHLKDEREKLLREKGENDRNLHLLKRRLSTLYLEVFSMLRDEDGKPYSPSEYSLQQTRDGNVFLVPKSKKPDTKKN

[5] = biological target: T3, Nuclear factor erythroid 2-related factor 2 (Mus musculus); assay: Activation of Nrf2 in mouse BV-2 cells assessed as increase in HO-1 protein expression at 3 uM measured after 24 hrs by immunoblot analysis; type: cell-based; conditions: filed as activator
[6] = biological target: T3, Nuclear factor erythroid 2-related factor 2 (Mus musculus); assay: Activation of Nrf2 in mouse BV-2 cells assessed as increase in HO-1 protein expression measured after 9 hrs by immunoblot analysis; type: cell-based; conditions: filed as activator, dose 0.01-3 µM
BV-2 [7] = assay: Antiinflammatory activity against LPS-induced mouse BV-2 cells assessed as inhibition of NO production at 0.001 to 1 uM pretreated for 6 hrs followed by LPS stimulation for 24 hrs by Griess assay; type: functional, cell-based; conditions: dose 0.001-1 µM, time 30.0 hrs
BV-2 [8] = assay: Antiinflammatory activity against LPS-induced mouse BV-2 cells assessed as inhibition of IL-1 beta protein expression at 0.001 to 1 uM pretreated for 6 hrs followed by LPS stimulation for 24 hrs by immunoblot analysis; type: functional, cell-based; conditions: dose 0.001-1 µM, time 30.0 hrs
BV-2 [9] = assay: Antiinflammatory activity against LPS-induced mouse BV-2 cells assessed as inhibition of IL-6 mRNA expression at 0.03 to 3 uM pretreated for 6 hrs followed by LPS stimulation for 6 hrs by qRT-PCR analysis; type: functional, cell-based; conditions: dose 0.03-3 µM, time 12.0 hrs
BV-2 [10] = assay: Antiinflammatory activity against LPS-induced mouse BV-2 cells assessed as inhibition of TNF-alpha production at 0.1 to 3 uM pretreated for 6 hrs followed by LPS stimulation for 24 hrs by ELISA; type: functional, cell-based; conditions: dose 0.1-3 µM, time 30.0 hrs
[11] = Toxicity against C57BL/6N mouse at 1000 mg/kg, po administered as single dose; type: organism-based; conditions: in vivo
Mus musculus [12] = assay: Antiinflammatory activity against LPS-induced neuroinflammation C57BL/6N mouse model assessed as reduction of glial cell reactivity by measuring reduction in GFAP expression in hippocampus CA1 region at 20 mg/kg/day, po administered for 3 days followed by LPS administration for 7 days by immunofluorescence staining based analysis; type: functional, organism-based; conditions: time 10.0 day
Mus musculus [13] = assay: Antiinflammatory activity against LPS-induced neuroinflammation C57BL/6N mouse model assessed as inhibition of IL-6 production in plasma at 20 mg/kg/day, po administered for 3 days followed by LPS administration for 7 days by ELISA; type: functional, organism-based; conditions: time 10.0 day

Chain of CYP2C9 (P11712 whole entry): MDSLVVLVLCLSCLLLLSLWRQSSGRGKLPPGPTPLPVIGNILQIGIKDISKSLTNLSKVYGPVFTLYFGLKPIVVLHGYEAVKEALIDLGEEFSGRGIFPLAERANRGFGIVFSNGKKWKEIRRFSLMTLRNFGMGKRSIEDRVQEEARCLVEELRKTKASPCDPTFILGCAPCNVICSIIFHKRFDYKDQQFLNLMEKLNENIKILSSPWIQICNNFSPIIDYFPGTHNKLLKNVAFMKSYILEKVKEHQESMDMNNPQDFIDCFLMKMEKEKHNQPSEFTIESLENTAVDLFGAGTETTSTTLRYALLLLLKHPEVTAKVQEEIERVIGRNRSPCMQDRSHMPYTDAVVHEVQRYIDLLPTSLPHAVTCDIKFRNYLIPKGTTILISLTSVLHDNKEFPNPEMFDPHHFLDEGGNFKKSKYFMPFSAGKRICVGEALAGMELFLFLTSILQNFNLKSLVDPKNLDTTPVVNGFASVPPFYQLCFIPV
Chain of CYP3A4 (P08684 whole entry): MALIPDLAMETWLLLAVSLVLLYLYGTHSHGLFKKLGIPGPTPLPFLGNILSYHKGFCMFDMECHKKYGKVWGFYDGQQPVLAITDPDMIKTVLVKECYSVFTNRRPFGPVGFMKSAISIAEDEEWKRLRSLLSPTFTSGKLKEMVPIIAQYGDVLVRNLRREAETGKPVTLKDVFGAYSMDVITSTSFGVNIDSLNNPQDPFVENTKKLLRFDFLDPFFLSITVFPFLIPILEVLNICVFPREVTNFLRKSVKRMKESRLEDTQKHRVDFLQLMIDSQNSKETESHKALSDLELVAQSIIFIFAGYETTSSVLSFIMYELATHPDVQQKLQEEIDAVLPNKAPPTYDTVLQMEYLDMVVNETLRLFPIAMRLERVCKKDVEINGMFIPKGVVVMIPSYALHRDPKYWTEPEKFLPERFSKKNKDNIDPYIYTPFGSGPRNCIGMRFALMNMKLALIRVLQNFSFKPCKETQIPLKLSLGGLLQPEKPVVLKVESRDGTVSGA

EC50 [1]: 37 nM
activity at 10 µM (CYP1A2): 84.9%
activity at 10 µM (CYP3A4): 77.1%
activity at 10 µM (CYP2C9): > 99%
remaining at 0.5 h [2]: 94.1%
remaining at 0.5 h [3]: 74.4%
Activity [4]: Dose-Dependent Effect
Activity [5]: Active
Activity [6]: Dose-Dependent Effect
Structure (SMILES): COc1cccnc1S(=O)(=O)/C=C/c1ncccc1Cl
Activity (BV-2 [7]): Active
Activity (BV-2 [8]): Active
Activity (BV-2 [9]): Active
Activity (BV-2 [10]): Active
Activity [11]: Non-Toxic
Activity (Mus musculus [12]): Active
Activity (Mus musculus [13]): Active
